Among the test systems are 786-0; A498; CAKI-1; CCRF-CEM; DU-145; HT-29; Hs-578T; MDA-MB-231; MDA-MB-435; MDA-N; NCI/ADR-RES; PC-3; RXF 393; SF-539; SK-MEL-2; SNB-75; SR; SW-620; T47D; TK-10.
Assay in all cases: NCI-60 cell line screen, 48 h

The structures appear in SMILES notation.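 The compound was tested at five concentrations on cells cultured in 96-well plates, with a 48-hour exposure period. The concentration for 50% growth inhibition is given as GI50.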 Activity calls are given as the source filed them. Cut-off read from the data, not from the text of the source: active = GI50 up to about 1.1 µM and inactive = higher. A value given as a limit tells only on which side of the number the result lay.

On to `Oc1ccc2ccccc2c1/C=N/Cc1c(O)ccc2ccccc12`, for which the GI50 in the assay on 786-0 is 47.2 µM (inactive); in the assay on A498, 26.1 µM (inactive); in the assay with CAKI-1, 87.7 µM (inactive); with CCRF-CEM, 6.25 µM (inactive); in the assay on DU-145 it was 41.4 µM (inactive); in the assay on HT-29 it was > 100 µM (inactive). The GI50 with Hs-578T is 69 µM (inactive); in the assay on MDA-MB-231 it was 82.4 µM (inactive); with MDA-MB-435, 77.6 µM (inactive); in the assay with MDA-N it was 51.1 µM (inactive); in the assay with NCI/ADR-RES it was 33.8 µM (inactive); in the assay on PC-3, 38.7 µM (inactive). In addition, the GI50 with RXF 393 was 1.39 µM (inactive); in the assay on SF-539, 31.6 µM (inactive); with SK-MEL-2, 71.8 µM (inactive); in the assay on SNB-75 it was 37.9 µM (inactive); with SR, 27.2 µM (inactive); in the assay on SW-620 it was 52.4 µM (inactive). For the same molecule, the figures for the GI50 in the assay with T47D and in the assay on TK-10 were 19.1 µM (inactive) and 70.5 µM (inactive), respectively.

Turning to `CCCOc1cc2c(cc1O)CC[C@@H]1[C@@H]2CC[C@]2(C)[C@@H](O)CC[C@@H]12`, the GI50 was 3.63 µM (inactive) in the assay with 786-0; 5.37 µM (inactive) with A498; 2.81 µM (inactive) in the assay with CAKI-1; 1.56 µM (inactive) in the assay on CCRF-CEM; 3.27 µM (inactive) in the assay on DU-145; 7.57 µM (inactive) in the assay with HT-29. The GI50 was 1.55 µM (inactive) in the assay on Hs-578T; 5.56 µM (inactive) with MDA-MB-231; 0.284 µM (active) in the assay on MDA-MB-435; 0.22 µM (active) in the assay on MDA-N; 1.17 µM (inactive) in the assay with NCI/ADR-RES; 4.76 µM (inactive) in the assay with PC-3. For the same molecule, the GI50 in the assay with RXF 393 was 2.25 µM (inactive); in the assay on SF-539, 1.48 µM (inactive); with SK-MEL-2, 2.17 µM (inactive); in the assay with SNB-75, 2.36 µM (inactive); in the assay on SR, 0.209 µM (active); in the assay with SW-620 it was 1 µM (active). Moreover, the figures for the GI50 with T47D and with TK-10 were 3.19 µM (inactive) and 7.5 µM (inactive), respectively.

For the molecule `Cn1c2ccccc2c2c(-c3ccccc3)cc3c(c21)C(=O)C=CC3=O`, the GI50 in the assay on 786-0 is 1.57 µM (inactive); with A498, 2.23 µM (inactive); in the assay with CAKI-1 it was 1.91 µM (inactive); in the assay with CCRF-CEM, 0.228 µM (active); in the assay with DU-145, 5.4 µM (inactive); in the assay on HT-29, 3.83 µM (inactive). For the same molecule, the GI50 in the assay on Hs-578T was 3.54 µM (inactive); in the assay on MDA-MB-231 it was 2.43 µM (inactive); in the assay with MDA-MB-435, 1.92 µM (inactive); with MDA-N, 2.37 µM (inactive); in the assay with NCI/ADR-RES, 3.33 µM (inactive); in the assay with PC-3 it was 3.02 µM (inactive). The GI50 with RXF 393 was 2.2 µM (inactive); in the assay on SF-539, 1.92 µM (inactive); with SK-MEL-2, 3.03 µM (inactive); with SNB-75 it was > 5.66 µM (inactive); with SR, 0.195 µM (active); in the assay on SW-620, 0.421 µM (active). The results for the GI50 in the assay on T47D and with TK-10 were 1.38 µM (inactive) and 1.92 µM (inactive), respectively.

Turning to `C=C1CC(c2ccc(OCCCN3C(=O)c4ccccc4C3=O)cc2)OC1=O` (stereo not given), the GI50 in the assay with 786-0 is 1.95 µM (inactive); with A498, 1.37 µM (inactive); in the assay on CAKI-1 it was 2.37 µM (inactive); in the assay on CCRF-CEM, 1.64 µM (inactive); in the assay with DU-145, 4.75 µM (inactive); with HT-29, 2.53 µM (inactive). Besides, the GI50 in the assay on Hs-578T is 5.31 µM (inactive); in the assay with MDA-MB-231 it was 3.95 µM (inactive); in the assay on MDA-MB-435, 2.52 µM (inactive); in the assay on MDA-N, 2.79 µM (inactive); in the assay with NCI/ADR-RES, 8.09 µM (inactive); with PC-3, 2.92 µM (inactive). The GI50 in the assay with RXF 393 was 1.99 µM (inactive); in the assay on SF-539, 0.123 µM (active); in the assay on SK-MEL-2, 1.96 µM (inactive); in the assay on SNB-75, 10.6 µM (inactive); with SR it was 3.05 µM (inactive); in the assay with SW-620, 1.48 µM (inactive). In addition, the GI50 in the assay on T47D was 2.92 µM (inactive); in the assay on TK-10 it was 4.94 µM (inactive).

For the molecule `CCO/C=N\C1=C(C#N)SC2=N/C(=C\c3ccco3)C(=O)N21`, the GI50 in the assay with 786-0, with A498, in the assay with CAKI-1, in the assay on CCRF-CEM, with DU-145 and in the assay on HT-29 was > 100 µM (inactive) in each case. The GI50 in the assay on Hs-578T, in the assay on MDA-MB-231, in the assay on MDA-MB-435, with MDA-N, in the assay on NCI/ADR-RES and in the assay with PC-3 was > 100 µM (inactive) each time. Besides, the GI50 with RXF 393, in the assay with SF-539, in the assay on SK-MEL-2, with SNB-75, in the assay on SR and in the assay with SW-620 was > 100 µM (inactive) throughout. Further, the GI50 in the assay on T47D and in the assay with TK-10 was > 100 µM (inactive) in each case.

As to `COc1ccc(-c2[nH]c3c4c(nc5c(c24)C(=O)CC(C)(C)C5)CC(C)(C)C3)cc1`, the GI50 with 786-0 was 32.2 µM (inactive); in the assay with A498, 28.6 µM (inactive); with CAKI-1 it was 70.5 µM (inactive); with CCRF-CEM it was 11.4 µM (inactive); with DU-145 it was > 100 µM (inactive); in the assay on HT-29 it was 43.9 µM (inactive). For the same molecule, the GI50 with Hs-578T was 93.1 µM (inactive); with MDA-MB-231, 50.9 µM (inactive); with MDA-MB-435, 50.2 µM (inactive); in the assay on MDA-N it was 47.4 µM (inactive); in the assay on NCI/ADR-RES it was 48.8 µM (inactive); with PC-3, 24.3 µM (inactive). The GI50 with RXF 393 was 73.5 µM (inactive); with SF-539 it was 67.6 µM (inactive); in the assay with SK-MEL-2, 39.7 µM (inactive); in the assay on SNB-75 it was 34.4 µM (inactive); in the assay with SR it was 13.2 µM (inactive); in the assay with SW-620 it was > 100 µM (inactive). The figures for the GI50 in the assay on T47D and with TK-10 were 44.5 µM (inactive) and > 100 µM (inactive), respectively.

As to `Cc1sc2nc(N(C)C)oc(=O)c2c1C`, the GI50 is > 100 µM (inactive) with 786-0; 81.3 µM (inactive) with A498; 76.9 µM (inactive) with CAKI-1; 94.6 µM (inactive) in the assay with CCRF-CEM; > 100 µM (inactive) with DU-145; > 100 µM (inactive) with HT-29. Also, the GI50 with Hs-578T is > 100 µM (inactive); in the assay on MDA-MB-231, > 100 µM (inactive); in the assay on MDA-MB-435 it was > 100 µM (inactive); with MDA-N, > 100 µM (inactive); with NCI/ADR-RES, 70 µM (inactive); in the assay on PC-3, 63.1 µM (inactive). Besides, the GI50 is 25 µM (inactive) in the assay on RXF 393; > 100 µM (inactive) in the assay on SF-539; > 100 µM (inactive) in the assay on SK-MEL-2; 34.5 µM (inactive) in the assay on SNB-75; 40.8 µM (inactive) in the assay with SR; > 100 µM (inactive) with SW-620. Besides, the results for the GI50 in the assay on T47D and in the assay with TK-10 were 58.7 µM (inactive) and > 100 µM (inactive), respectively.

Regarding `O=C(O)C(O)C(O)C(O)C(O)CO.[Ba+2]` (stereo not given), the GI50 in the assay on 786-0, with A498, in the assay on CAKI-1, with CCRF-CEM, in the assay on DU-145 and in the assay with HT-29 was > 100 µM (inactive) throughout. Also, the GI50 in the assay on Hs-578T, in the assay on MDA-MB-231, in the assay on MDA-MB-435, in the assay with MDA-N, in the assay on NCI/ADR-RES and in the assay with PC-3 was > 100 µM (inactive) throughout. For the same molecule, the GI50 with RXF 393, in the assay with SF-539, in the assay on SK-MEL-2, in the assay with SNB-75, in the assay with SR and with SW-620 was > 100 µM (inactive) in each case. Besides, the GI50 in the assay with T47D and in the assay with TK-10 was > 100 µM (inactive) throughout.

In the case of `COC(=O)CCSC1=CC(=O)c2nc3ccccc3c3ccnc1c23`, the GI50 with 786-0 was 19.9 µM (inactive); in the assay on A498, > 84.7 µM (inactive); with CAKI-1 it was 18.8 µM (inactive); in the assay on CCRF-CEM, 4.49 µM (inactive); with DU-145, 22.2 µM (inactive); with HT-29 it was 18 µM (inactive). The GI50 in the assay with Hs-578T was 23.4 µM (inactive); with MDA-MB-231, 27.5 µM (inactive); with MDA-MB-435 it was 7.4 µM (inactive); with MDA-N, 28 µM (inactive); in the assay on NCI/ADR-RES, 15.3 µM (inactive); with PC-3, 15.4 µM (inactive). Further, the GI50 was 20.3 µM (inactive) with RXF 393; 15.7 µM (inactive) in the assay on SF-539; 23.2 µM (inactive) with SK-MEL-2; > 100 µM (inactive) with SNB-75; 5.32 µM (inactive) in the assay on SR; 22.2 µM (inactive) with SW-620. The GI50 was 18.7 µM (inactive) with T47D and 14.2 µM (inactive) in the assay on TK-10.

Values taken from ChEMBL document CHEMBL1201862, “PubChem BioAssay data set” (2004).
